Laboratory results from US10723741B1, “DNA polymerase IIIC inhibitors and use thereof” (Acurx Pharmaceuticals, LLC, priority 2018, dated 2020).
In brackets after ≈: the same amount, converted by molar mass. Read-outs that look alike come from different tables or passages of the source.

Experiments:
Assay type in all cases: cell-based
[1] = system: Enterococcus faecium ATCC 700221 (VRE); experiment: Broth microdilution MIC, E. faecium ATCC 700221 (VRE); conditions: Enterococcus faecium, broth microdilution, 37° C., 20 hours
Procedure, shortened: (§1)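 Two-fold dilutions from 64 to 0.0625 μg/ml final, 1% DMSO, were inoculated at ~5.0×10^5 cfu/ml in the strain's test medium and kept 20 h at 37 °C in ambient atmosphere. Colonies were grown on MHA, with S. pneumoniae on blood agar under 5% CO2.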

[2] = system: Escherichia coli ATCC 25922; experiment: Broth microdilution MIC, E. coli ATCC 25922 (MHIIB w & w/o 4 mM EDTA); conditions: broth microdilution, 37° C., 20 hours; for MIC: Escherichia coli, ATCC25922, without EDTA, read-out: MIC E. coli ATCC 25922; for MIC E. coli ATCC 25922 + 4 mM EDTA: with 4 mM EDTA
Procedure, shortened: as §1

[3] = system: Staphylococcus aureus NRS384 (MRSA); experiment: Broth microdilution MIC, S. aureus NRS384 (MRSA); conditions: Staphylococcus aureus, broth microdilution, 37° C., 20 hours
Procedure, shortened: as §1

[4] = system: Streptococcus pneumoniae ATCC 49619; experiment: Broth microdilution MIC, S. pneumoniae ATCC 49619; conditions: ATCC49619, broth microdilution, 37° C., 20 hours, read-out: MIC S. pneumoniae ATCC 49619
Procedure, shortened: as §1

[5] = system: Bacillus subtilis ATCC 6633; experiment: Broth microdilution MIC, B. subtilis ATCC 6633; conditions: ATCC6633, broth microdilution, 37° C., 20 hours, read-out: MIC B. subtilis ATCC 6633
Procedure, shortened: as §1

[6] = system: Enterococcus faecalis ATCC 29212; experiment: Broth microdilution MIC, E. faecalis ATCC 29212; conditions: ATCC29212, broth microdilution, 37° C., 20 hours, read-out: MIC E. faecalis ATCC 29212
Procedure, shortened: as §1

[7] = system: Staphylococcus aureus ATCC 29213 (MSSA); experiment: Broth microdilution MIC, S. aureus ATCC 29213 (MSSA); conditions: broth microdilution, 37° C., 20 hours, read-out: MIC S. aureus ATCC 29213 (MSSA)
Procedure, shortened: as §1

[8] = read-out: MIC E. faecium ATCC 700221 (VRE)

| SMILES | MIC [1, 8] [µg/mL] | MIC [2] [µg/mL] | MIC E. coli ATCC 25922 + 4 mM EDTA [2] [µg/mL] | MIC ([3]; read-out: MIC NRS 384 (MRSA)) [µg/mL] | MIC [4] [µg/mL] | MIC [5] [µg/mL] | MIC [6] [µg/mL] | MIC [7] [µg/mL] | MIC ([1]; MHIIB, read-out: MIC against E. faecium ATCC 700221 (VRE)) [µg/mL] | MIC ([3]; MHIIB, read-out: MIC against S. aureus NRS 384 (MRSA)) [µg/mL] |
| --- | --- | --- | --- | --- | --- | --- | --- | --- | --- | --- |
| CCOCCc1nn(C)c2c(=O)[nH]c(NCc3ccc(Cl)c(Cl)c3)nc12 [Compound 49, 5-((3,4-dichlorobenzyl)amino)-3-(2-ethoxyethyl)-1-methyl-1H-pyrazolo[4,3-d]pyrimidin-7(6H)-one] | 16 (≈ 40.4 µM) | > 64 | >64 | 8 (≈ 20.2 µM) | 16 (≈ 40.4 µM) | 8 (≈ 20.2 µM) | > 64 | 16 (≈ 40.4 µM) | – | – |
| O=c1[nH]c(NCc2ccc(Cl)c(Cl)c2)nc2c(-c3ncco3)nn(CCOCCO)c12 [Compound 50, 5-((3,4-dichlorobenzyl)amino)-1-(2-(2-hydroxyethoxy)ethyl)-3-(oxazol-2-yl)-1H-pyrazolo[4,3-d]pyrimidin-7(6H)-one] | > 64 | > 64 | >64 | > 64 | > 64 | > 64 | > 64 | > 64 | – | – |
| N#Cc1nn(CCOCCO)c2c(=O)[nH]c(NCc3ccc(Cl)c(Cl)c3)nc12 [Compound 51, 5-((3,4-dichlorobenzyl)amino)-1-(2-(2-hydroxyethoxy)ethyl)-7-oxo-6,7-dihydro-1H-pyrazolo[4,3-d]pyrimidine-3-carbonitrile] | 0.5 (≈ 1.18 µM) | > 64 | >64 | 2 (≈ 4.73 µM) | 2 (≈ 4.73 µM) | 1 (≈ 2.36 µM) | 2 (≈ 4.73 µM) | 2 (≈ 4.73 µM) | – | – |
| O=c1[nH]c(NCc2ccc(Cl)c(Cl)c2)nc2c(Br)nn(CCOCCO)c12 [Compound 52, 3-bromo-5-((3,4-dichlorobenzyl)amino)-1-(2-(2-hydroxyethoxy)ethyl)-1H-pyrazolo[4,3-d]pyrimidin-7(6H)-one] | 2 (≈ 4.19 µM) | > 64 | >64 | 4 (≈ 8.38 µM) | 16 (≈ 33.5 µM) | 1 (≈ 2.1 µM) | 4 (≈ 8.38 µM) | 2 (≈ 4.19 µM) | – | – |
| Cn1nc(F)c2nc(NCc3ccc(Cl)c(Cl)c3)[nH]c(=O)c21 [Compound 53, 5-((3,4-dichlorobenzyl)amino)-3-fluoro-1-methyl-1H-pyrazolo[4,3-d]pyrimidin-7(6H)-one] | 0.5 (≈ 1.46 µM) | > 64 | 64 | 0.5 (≈ 1.46 µM) | 2 (≈ 5.85 µM) | 0.5 (≈ 1.46 µM) | 2 (≈ 5.85 µM) | 0.5 (≈ 1.46 µM) | ≤ 1 | ≤ 1 |
| O=c1[nH]c(NCc2ccc(Cl)c(Cl)c2)nc2c(F)n[nH]c12 [Compound 54, 5-[(3,4-Dichlorophenyl)methylamino]-3-fluoro-1,6-dihydropyrazolo[4,3-d]pyrimidin-7-one] | 4 (≈ 12.2 µM) | > 64 | >64 | 8 (≈ 24.4 µM) | 32 (≈ 97.5 µM) | 4 (≈ 12.2 µM) | 16 (≈ 48.8 µM) | 8 (≈ 24.4 µM) | – | – |
| O=c1[nH]c(NCc2ccc(Cl)c(Cl)c2)nc2c(Cl)n[nH]c12 [Compound 55, 3-Chloro-5-[(3,4-dichlorophenyl)methylamino]-1,6-dihydropyrazolo[4,3-d]pyrimidin-7-one] | 4 (≈ 11.6 µM) | > 64 | 64 | 4 (≈ 11.6 µM) | 8 (≈ 23.2 µM) | 2 (≈ 5.8 µM) | 8 (≈ 23.2 µM) | 4 (≈ 11.6 µM) | – | – |
| Cl.O=c1[nH]c(NCc2ccc(Cl)c(Cl)c2)nc2cnn(CCN3CCOCC3)c12 [Compound 57, 5-((3,4-dichlorobenzyl)amino)-1-(2-morpholinoethyl)-1H-pyrazolo[4,3-d]pyrimidin-7(6H)-one hydrochloride] | 1 | > 64 | >64 | 2 | 2 | 1 | 4 | 2 | – | – |
| CN1CCN(CCn2ncc3nc(NCc4ccc(Cl)c(Cl)c4)[nH]c(=O)c32)CC1 [Compound 58, 5-((3,4-Dichlorobenzyl)amino)-1-(2-(4-methylpiperazin-1-yl)ethyl)-1H-pyrazolo[4,3-d]pyrimidin-7(6H)-one] | 4 (≈ 9.17 µM) | > 64 | >64 | 8 (≈ 18.3 µM) | 4 (≈ 9.17 µM) | 2 (≈ 4.58 µM) | 8 (≈ 18.3 µM) | 16 (≈ 36.7 µM) | – | – |

More lines, now with the values ahead:

| MIC [1, 8] [µg/mL] | MIC [2] [µg/mL] | MIC E. coli ATCC 25922 + 4 mM EDTA [2] [µg/mL] | MIC ([3]; read-out: MIC NRS 384 (MRSA)) [µg/mL] | MIC [4] [µg/mL] | MIC [5] [µg/mL] | MIC [6] [µg/mL] | MIC [7] [µg/mL] | MIC ([1]; MHIIB, read-out: MIC against E. faecium ATCC 700221 (VRE)) [µg/mL] | MIC ([3]; MHIIB, read-out: MIC against S. aureus NRS 384 (MRSA)) [µg/mL] | SMILES |
| --- | --- | --- | --- | --- | --- | --- | --- | --- | --- | --- |
| 2 (≈ 4.24 µM) | > 64 | >64 | 8 (≈ 17 µM) | 4 (≈ 8.49 µM) | 4 (≈ 8.49 µM) | 8 (≈ 17 µM) | 8 (≈ 17 µM) | – | – | O=c1[nH]c(NCc2ccc(Cl)c(Cl)c2)nc2cnn(CCN3CCS(=O)(=O)CC3)c12 [Compound 59, 5-((3,4-Dichlorobenzyl)amino)-1-(2-(1,1-dioxidothiomorpholino)ethyl)-1H-pyrazolo[4,3-d]pyrimidin-7(6H)-one] |
| 2 (≈ 4.44 µM) | > 64 | >64 | 8 (≈ 17.8 µM) | 4 (≈ 8.88 µM) | 4 (≈ 8.88 µM) | 8 (≈ 17.8 µM) | 8 (≈ 17.8 µM) | – | – | CN1CCN(CCn2ncc3nc(NCc4ccc(Cl)c(Cl)c4)[nH]c(=O)c32)CC1=O [Compound 60, 5-((3,4-Dichlorobenzyl)amino)-1-(2-(4-methyl-3-oxopiperazin-1-yl)ethyl)-1H-pyrazolo[4,3-d]pyrimidin-7(6H)-one] |
| 16 (≈ 43.6 µM) | > 64 | >64 | 64 (≈ 174 µM) | 16 (≈ 43.6 µM) | 8 (≈ 21.8 µM) | 32 (≈ 87.1 µM) | 64 (≈ 174 µM) | – | – | CNCCn1ncc2nc(NCc3ccc(Cl)c(Cl)c3)[nH]c(=O)c21 [Compound 61, 5-((3,4-Dichlorobenzyl)amino)-1-(2-(methylamino)ethyl)-1H-pyrazolo[4,3-d]pyrimidin-7(6H)-one] |
| 8 (≈ 19.5 µM) | > 64 | 32 | 16 (≈ 39.1 µM) | 4 (≈ 9.77 µM) | 4 (≈ 9.77 µM) | 8 (≈ 19.5 µM) | 16 (≈ 39.1 µM) | – | – | CC(C)(C)NCCn1ncc2nc(NCc3ccc(Cl)c(Cl)c3)[nH]c(=O)c21 [Compound 62, 1-[2-(tert-Butylamino)ethyl]-5-[(3,4-dichlorophenyl)methylamino]-6H-pyrazolo[4,3-d]pyrimidin-7-one] |
| 32 (≈ 90.6 µM) | > 64 | >64 | 64 (≈ 181 µM) | 8 (≈ 22.6 µM) | 8 (≈ 22.6 µM) | 32 (≈ 90.6 µM) | 64 (≈ 181 µM) | – | – | NCCn1ncc2nc(NCc3ccc(Cl)c(Cl)c3)[nH]c(=O)c21 [Compound 63, 1-(2-Aminoethyl)-5-[(3,4-dichlorophenyl)methylamino]-6H-pyrazolo[4,3-d]pyrimidin-7-one] |
| 2 | > 64 | 64 | 8 | 4 | 2 | 4 | 8 | – | – | CC(=O)N1CCN(CCn2ncc3nc(NCc4ccc(Cl)c(Cl)c4)[nH]c(=O)c32)CC1.Cl [Compound 64, 1-(2-(4-Acetylpiperazin-1-yl)ethyl)-5-((3,4-dichlorobenzyl)amino)-1H-pyrazolo[4,3-d]pyrimidin-7(6H)-one hydrochloride] |
